Source: ChEMBL document CHEMBL5465560, “Selectivity Literature for EUbOPEN Chemogenomic Library” (2024)

Legend:
[1] = molecular target: Glutamate receptor ionotropic, kainate 1 (Homo sapiens) (UniProt P39086); experiment: Selectivity interaction (Eurofins CEREP Diversity Profile (receptors and ion channels)) EUB0000279b GRIK1; details: at 10 µM
[2] = molecular target: T1, Ankyrin repeat and protein kinase domain-containing protein 1 (Homo sapiens) (UniProt Q8NFD2); experiment: Selectivity interaction (KinomeScan (DiscoverX)) EUB0001079a ANKK1; details: at 1 µM
T1 sequence (whole entry): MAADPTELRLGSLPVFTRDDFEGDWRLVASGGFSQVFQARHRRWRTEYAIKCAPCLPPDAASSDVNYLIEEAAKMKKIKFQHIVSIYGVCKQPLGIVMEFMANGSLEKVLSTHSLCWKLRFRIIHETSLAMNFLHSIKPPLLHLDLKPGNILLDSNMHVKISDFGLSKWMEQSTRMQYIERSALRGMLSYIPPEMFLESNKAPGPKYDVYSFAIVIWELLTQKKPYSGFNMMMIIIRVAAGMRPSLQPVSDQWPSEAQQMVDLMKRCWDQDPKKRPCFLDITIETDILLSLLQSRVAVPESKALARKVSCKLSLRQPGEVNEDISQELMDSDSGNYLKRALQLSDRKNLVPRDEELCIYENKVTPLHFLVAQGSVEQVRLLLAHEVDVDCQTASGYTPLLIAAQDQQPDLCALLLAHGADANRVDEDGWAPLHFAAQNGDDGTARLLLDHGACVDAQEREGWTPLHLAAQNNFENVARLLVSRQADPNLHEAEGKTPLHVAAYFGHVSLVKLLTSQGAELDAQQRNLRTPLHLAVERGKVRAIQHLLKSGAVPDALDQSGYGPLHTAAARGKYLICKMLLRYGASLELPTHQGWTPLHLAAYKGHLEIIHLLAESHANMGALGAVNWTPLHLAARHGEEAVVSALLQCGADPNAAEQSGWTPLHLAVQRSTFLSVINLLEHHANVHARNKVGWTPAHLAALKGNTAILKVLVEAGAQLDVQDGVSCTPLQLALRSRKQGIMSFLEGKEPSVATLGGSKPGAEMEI

[3] = molecular target: T2, Non-receptor tyrosine-protein kinase TNK1 (Homo sapiens) (UniProt Q13470); experiment: Selectivity interaction (KinomeScan (DiscoverX)) EUB0001079a TNK1; details: at 1 µM
T2 sequence (whole entry): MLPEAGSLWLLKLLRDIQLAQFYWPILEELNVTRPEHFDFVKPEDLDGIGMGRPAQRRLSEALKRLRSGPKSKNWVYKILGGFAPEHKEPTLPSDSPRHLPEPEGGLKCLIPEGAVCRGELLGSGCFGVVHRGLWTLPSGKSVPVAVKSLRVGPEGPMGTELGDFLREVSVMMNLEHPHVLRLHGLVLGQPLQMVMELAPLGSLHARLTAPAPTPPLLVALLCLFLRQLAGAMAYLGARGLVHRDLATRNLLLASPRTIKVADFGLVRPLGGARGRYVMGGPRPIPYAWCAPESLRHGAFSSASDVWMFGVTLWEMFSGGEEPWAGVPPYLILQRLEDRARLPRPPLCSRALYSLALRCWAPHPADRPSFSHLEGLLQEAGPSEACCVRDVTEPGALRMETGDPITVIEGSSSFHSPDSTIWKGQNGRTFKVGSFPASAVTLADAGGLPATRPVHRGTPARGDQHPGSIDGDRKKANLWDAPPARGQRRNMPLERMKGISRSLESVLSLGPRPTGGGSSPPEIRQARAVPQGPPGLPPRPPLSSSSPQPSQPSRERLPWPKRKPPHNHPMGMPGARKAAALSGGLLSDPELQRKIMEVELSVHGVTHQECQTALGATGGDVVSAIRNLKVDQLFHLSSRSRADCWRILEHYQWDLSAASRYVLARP

[4] = molecular target: Serine/threonine-protein kinase Chk2 (Homo sapiens) (UniProt O96017); experiment: Selectivity interaction (KinomeScan (DiscoverX)) EUB0000045b CHEK2
[5] = molecular target: Macrophage colony-stimulating factor 1 receptor (Homo sapiens) (UniProt P07333); experiment: Selectivity interaction (KinomeScan (DiscoverX)) EUB0001619a CSF1R; details: at 1 µM
Macrophage colony-stimulating factor 1 receptor (Homo sapiens), sequence (P07333 whole entry): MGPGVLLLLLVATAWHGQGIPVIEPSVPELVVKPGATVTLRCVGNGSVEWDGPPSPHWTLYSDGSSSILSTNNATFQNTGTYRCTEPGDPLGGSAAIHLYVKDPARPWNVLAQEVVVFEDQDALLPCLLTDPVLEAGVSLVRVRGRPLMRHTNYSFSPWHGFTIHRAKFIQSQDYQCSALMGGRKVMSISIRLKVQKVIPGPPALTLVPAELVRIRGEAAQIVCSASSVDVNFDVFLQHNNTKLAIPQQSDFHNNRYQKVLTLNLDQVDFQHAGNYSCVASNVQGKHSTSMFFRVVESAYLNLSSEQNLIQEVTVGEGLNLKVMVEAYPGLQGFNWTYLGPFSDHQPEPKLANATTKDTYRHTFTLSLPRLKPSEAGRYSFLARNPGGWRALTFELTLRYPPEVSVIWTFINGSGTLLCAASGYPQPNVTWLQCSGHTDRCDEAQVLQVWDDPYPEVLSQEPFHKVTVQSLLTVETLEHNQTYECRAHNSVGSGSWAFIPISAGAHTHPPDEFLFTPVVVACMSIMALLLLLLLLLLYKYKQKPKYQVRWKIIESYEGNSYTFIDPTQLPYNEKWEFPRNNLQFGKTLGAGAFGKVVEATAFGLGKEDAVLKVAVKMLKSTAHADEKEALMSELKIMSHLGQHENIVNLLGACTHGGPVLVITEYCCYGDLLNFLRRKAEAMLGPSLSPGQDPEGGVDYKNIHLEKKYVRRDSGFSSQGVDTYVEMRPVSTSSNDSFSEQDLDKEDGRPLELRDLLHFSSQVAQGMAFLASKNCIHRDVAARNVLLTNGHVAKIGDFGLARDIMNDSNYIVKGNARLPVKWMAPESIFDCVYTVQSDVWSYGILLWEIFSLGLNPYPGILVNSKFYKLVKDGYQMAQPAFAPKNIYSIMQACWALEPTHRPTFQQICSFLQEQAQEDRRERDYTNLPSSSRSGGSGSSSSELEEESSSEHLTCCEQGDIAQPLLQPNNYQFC

Serine/threonine-protein kinase Chk2 (Homo sapiens), sequence (O96017 whole entry): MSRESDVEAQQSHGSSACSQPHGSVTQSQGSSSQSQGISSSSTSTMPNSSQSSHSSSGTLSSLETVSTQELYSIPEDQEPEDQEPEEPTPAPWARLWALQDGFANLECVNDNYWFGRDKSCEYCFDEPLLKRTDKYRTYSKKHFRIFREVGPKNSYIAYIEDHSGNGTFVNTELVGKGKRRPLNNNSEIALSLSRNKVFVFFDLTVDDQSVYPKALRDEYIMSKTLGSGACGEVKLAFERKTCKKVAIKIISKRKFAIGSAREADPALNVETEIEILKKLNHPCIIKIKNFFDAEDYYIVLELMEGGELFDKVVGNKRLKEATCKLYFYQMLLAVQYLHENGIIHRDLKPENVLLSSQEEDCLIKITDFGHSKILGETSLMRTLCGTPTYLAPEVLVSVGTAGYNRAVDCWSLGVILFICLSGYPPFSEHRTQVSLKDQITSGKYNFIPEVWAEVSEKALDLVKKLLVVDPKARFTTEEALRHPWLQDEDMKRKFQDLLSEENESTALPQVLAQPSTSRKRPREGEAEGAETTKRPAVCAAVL
Glutamate receptor ionotropic, kainate 1 (Homo sapiens), sequence (P39086 whole entry, the tested form may be a part): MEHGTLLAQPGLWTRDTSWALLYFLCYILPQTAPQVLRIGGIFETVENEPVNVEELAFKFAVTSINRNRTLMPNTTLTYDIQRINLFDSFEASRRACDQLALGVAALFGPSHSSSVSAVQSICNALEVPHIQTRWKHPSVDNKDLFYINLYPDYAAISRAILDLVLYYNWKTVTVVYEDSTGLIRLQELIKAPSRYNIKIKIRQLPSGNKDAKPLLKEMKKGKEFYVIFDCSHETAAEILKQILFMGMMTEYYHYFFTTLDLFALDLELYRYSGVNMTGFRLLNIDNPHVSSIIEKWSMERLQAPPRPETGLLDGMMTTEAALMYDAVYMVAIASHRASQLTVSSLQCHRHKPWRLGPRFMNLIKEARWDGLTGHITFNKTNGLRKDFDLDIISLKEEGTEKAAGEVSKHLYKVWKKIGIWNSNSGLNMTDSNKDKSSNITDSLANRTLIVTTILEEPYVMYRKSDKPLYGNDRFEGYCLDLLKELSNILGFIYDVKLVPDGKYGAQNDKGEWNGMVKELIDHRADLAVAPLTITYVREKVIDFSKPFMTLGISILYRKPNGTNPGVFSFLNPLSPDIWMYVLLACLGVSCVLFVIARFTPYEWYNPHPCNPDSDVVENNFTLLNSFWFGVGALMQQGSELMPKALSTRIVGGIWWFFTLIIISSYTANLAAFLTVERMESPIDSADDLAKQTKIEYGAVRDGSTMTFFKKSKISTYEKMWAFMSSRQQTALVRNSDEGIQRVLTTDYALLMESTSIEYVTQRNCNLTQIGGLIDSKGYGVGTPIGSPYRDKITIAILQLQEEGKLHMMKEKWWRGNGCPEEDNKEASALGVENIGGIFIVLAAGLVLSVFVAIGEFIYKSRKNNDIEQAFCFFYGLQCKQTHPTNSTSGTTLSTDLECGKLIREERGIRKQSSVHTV

`CC(=O)c1cc(-c2ccccc2OCC2CC2)c2ncccn12` showed a % of control [1] of 117%.

Molecule `Nc1cnc(N2CCc3cc(S(=O)(=O)Nc4c(F)cc(Cl)cc4F)cc(N4CCCC4=O)c32)nc1` [TP-020n] has a % of control [2] of 100% and a % of control [3] of 100%.

Work on `C=CC(=O)Nc1cc(-n2c(=O)ccc3cnc4ccc(-c5ccc(NS(C)(=O)=O)cc5)cc4c32)ccc1C` yielded a % of control ([4]; at 1 µM) of 100% and a % of control ([4]; at 10 µM) of 100%.

Molecule `N#Cc1cccc(-c2c[nH]c3ncnc(N4CCOCC4)c23)c1` has a % of control [5] of 87%.
